In PubChem BioAssay (NCI) one finds GI50 and TGI data, which are given here for eight compounds.

The term GI50 denotes the concentration that inhibits growth by half. In general, TGI refers to the concentration at which net growth stops. The low end stands for greater sensitivity of the cells, the high end for lower sensitivity of the cells.

SMILES strings stand for the structures. Where “and” joins values, the source holds several entries; their conditions need not be identical. Equal values may be shown once.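 Assay format: 96-well plates, 48-hour exposure. GI50 marks 50% less growth. TGI: concentration producing complete growth inhibition.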

Some test systems named below: DU-145 prostate; HOP-92 NSCLC; IGROV1 ovarian; LOX IMVI melanoma; MCF7 breast; OVCAR-4 ovarian; PC-3 prostate; SF-268 CNS; SR leukemia; TK-10 renal.
Holding throughout (test): DTP human tumour cell line panel, 48 h

As to `CCN(CC)c1ccc(C2CC(c3cc(OC)c(OC)c(OC)c3)=NN2)cc1` (configuration not stated), the GI50 in the assay on DU-145 prostate is 0.305 µM; in the assay on HOP-92 NSCLC, 1.55 µM; with IGROV1 ovarian, 0.327 µM; in the assay with LOX IMVI melanoma, 0.83 µM; in the assay on MCF7 breast, 0.227 µM; in the assay with OVCAR-4 ovarian, 4.34 µM. The GI50 in the assay with PC-3 prostate is 0.342 µM; with SF-268 CNS it was 0.797 µM; in the assay with SR leukemia, 0.286 µM; with TK-10 renal it was 36 µM. Moreover, the concentration for total growth inhibition (TGI) in the assay with DU-145 prostate is 1.49 µM; with HOP-92 NSCLC, 31.1 µM; in the assay on IGROV1 ovarian, above 25.1 µM; with LOX IMVI melanoma, above 42 µM; in the assay with OVCAR-4 ovarian it was above 100 µM; in the assay with PC-3 prostate, 35.2 µM. Besides, the concentration for total growth inhibition (TGI) in the assay on SF-268 CNS was above 100 µM; in the assay with SR leukemia, 1.73 µM; with TK-10 renal, above 100 µM.

`CC1=CC(=O)CC(C)(C)C1(O)/C=C/C(C)=C/C(=O)O` (configuration not stated): the total growth inhibition concentration (TGI) with DU-145 prostate, in the assay on HOP-92 NSCLC, in the assay on IGROV1 ovarian, with LOX IMVI melanoma, in the assay on MCF7 breast and in the assay on OVCAR-4 ovarian was above 100 µM each time. Moreover, the TGI in the assay with PC-3 prostate, in the assay on SF-268 CNS, with SR leukemia and in the assay on TK-10 renal was above 100 µM throughout.

On to `C=C(C)[C@@H]1CC[C@]2(C(N)=O)CC[C@]3(C)[C@H](CC[C@@H]4[C@@]5(C)CC[C@H](O)C(C)(C)[C@@H]5CC[C@]43C)[C@@H]12`, for which the GI50 is 3.21 µM in the assay with DU-145 prostate; 2.69 µM in the assay with HOP-92 NSCLC; 3.32 µM with IGROV1 ovarian; 1.77 µM in the assay with LOX IMVI melanoma; 2.91 µM in the assay on MCF7 breast; 3.54 µM with OVCAR-4 ovarian. Besides, the GI50 in the assay with PC-3 prostate was 2.83 µM; in the assay on SF-268 CNS it was 4.34 µM; in the assay with SR leukemia it was 4.14 µM; in the assay with TK-10 renal, 2.79 µM. For the same compound, the TGI in the assay with DU-145 prostate was 10.1 µM; in the assay on HOP-92 NSCLC, 8.86 µM; with IGROV1 ovarian, 14.5 µM; in the assay with LOX IMVI melanoma, 3.23 µM; with MCF7 breast, 11.2 µM; in the assay with OVCAR-4 ovarian it was 19.8 µM. Further, the total growth inhibition concentration (TGI) was 14.7 µM in the assay with PC-3 prostate, above 100 µM in the assay on SF-268 CNS, 23.5 µM in the assay on SR leukemia and 7.59 µM in the assay with TK-10 renal.

Regarding `CC(C)CC1C(=O)N2CCC[C@H]2C2(O)O[C@](NC(=O)C3C=C4c5cccc6[nH]c(Br)c(c56)C[C@H]4N(C)C3)(C(C)C)C(=O)N12` (some centres not stated), the TGI with DU-145 prostate, in the assay on HOP-92 NSCLC, in the assay on IGROV1 ovarian, in the assay on LOX IMVI melanoma, in the assay on MCF7 breast and in the assay on OVCAR-4 ovarian was above 100 µM each time. Also, the TGI in the assay on PC-3 prostate, in the assay with SF-268 CNS, in the assay with SR leukemia and in the assay on TK-10 renal was above 100 µM each time. Further, the GI50 was 1.91 µM in the assay on HOP-92 NSCLC; 6.79 µM with IGROV1 ovarian; 21.6 µM in the assay with LOX IMVI melanoma; 4.92 µM in the assay with MCF7 breast; 5.78 µM in the assay with OVCAR-4 ovarian; 3 µM in the assay on PC-3 prostate. Also, the GI50 in the assay on SF-268 CNS was 9.02 µM; in the assay on SR leukemia, 33.7 µM; with TK-10 renal it was 5.06 µM.

For the compound `C[C@H]1CC[C@H]([C@@H](C)[C@H]2[C@@H](O)C[C@H]3[C@@H]4CC[C@H]5C[C@@H](O)CC[C@]5(C)[C@H]4CC[C@]23C)NC1`, the concentration for total growth inhibition (TGI) with DU-145 prostate stood at 32 µM; with HOP-92 NSCLC it was 33.7 µM; with IGROV1 ovarian, 35.4 µM; with LOX IMVI melanoma, 50.6 µM; in the assay on MCF7 breast it was 47.2 µM; with OVCAR-4 ovarian, 34.1 µM. Further, the TGI with PC-3 prostate amounted to 31 µM; in the assay on SF-268 CNS, 67.1 µM; with SR leukemia it was 24.7 µM; in the assay with TK-10 renal it was 38.1 µM.

With `Fc1ccc(-c2nn3c(CNc4ccccc4)nnc3s2)cc1`, the GI50 with DU-145 prostate is 56.6 µM; in the assay on HOP-92 NSCLC it was 17.5 µM; in the assay with IGROV1 ovarian, 49.3 µM; in the assay on LOX IMVI melanoma it was 29.4 µM; with MCF7 breast it was 60.2 µM; in the assay with OVCAR-4 ovarian it was 90.7 µM. Also, the GI50 in the assay with PC-3 prostate was 31 µM; in the assay with SF-268 CNS, 64.3 µM; with SR leukemia, above 100 µM; in the assay with TK-10 renal, 30.2 µM. Besides, the concentration for total growth inhibition (TGI) is above 100 µM in the assay on DU-145 prostate; above 100 µM in the assay with HOP-92 NSCLC; above 100 µM with IGROV1 ovarian; 96.7 µM with LOX IMVI melanoma; above 100 µM in the assay with MCF7 breast; above 100 µM with OVCAR-4 ovarian. Further, the TGI in the assay on PC-3 prostate, in the assay on SF-268 CNS, in the assay with SR leukemia and with TK-10 renal was above 100 µM throughout.

Consider `O=C(c1ccc(OCCN2CCCCC2)cc1)c1c(-c2ccc(O)cc2)sc2cc(O)ccc12`, for which the GI50 is 11.7 µM and 14.9 µM in the assay on DU-145 prostate; 1.43 µM and 5.51 µM in the assay with HOP-92 NSCLC; 12.3 µM and 16.5 µM in the assay with IGROV1 ovarian; 1.76 µM and 4.06 µM with LOX IMVI melanoma; 1.48 µM in the assay on MCF7 breast; 7.8 µM and 12.1 µM in the assay with OVCAR-4 ovarian. The GI50 in the assay with PC-3 prostate is 3.9 µM and 11.7 µM; with SF-268 CNS it was 6.67 µM and 12.8 µM; in the assay with SR leukemia it was 3.16 µM and 1.88 µM; in the assay with TK-10 renal, 16.7 µM and 16.3 µM. The total growth inhibition concentration (TGI) was 23.9 µM and 30.2 µM with DU-145 prostate; 6.72 µM and 29 µM in the assay with HOP-92 NSCLC; 28.9 µM and 38.5 µM in the assay on IGROV1 ovarian; 3.45 µM and 15.1 µM with LOX IMVI melanoma; 15.6 µM and 14 µM with MCF7 breast; 20.5 µM and 36.8 µM in the assay on OVCAR-4 ovarian. In addition, the concentration for total growth inhibition (TGI) was 18.9 µM and 35.7 µM in the assay on PC-3 prostate; 20.1 µM and 35.5 µM in the assay on SF-268 CNS; 31.8 µM and 33.3 µM in the assay on TK-10 renal.

Turning to `Cc1cc(C(=O)Nc2nc3cccc(Cl)c3n2[C@@H]2CCCCN(C(=O)/C=C/CN(C)C)C2)ccn1`, the GI50 in the assay with DU-145 prostate was 6.19 µM; in the assay on HOP-92 NSCLC, 6.94 µM; with IGROV1 ovarian, 0.634 µM; with LOX IMVI melanoma it was 10.1 µM; with MCF7 breast, 4.95 µM; with OVCAR-4 ovarian, 7.18 µM. Besides, the GI50 is 9.22 µM in the assay on PC-3 prostate, 10.6 µM with SF-268 CNS, 11.3 µM with SR leukemia and 1.07 µM in the assay on TK-10 renal. For the same compound, the TGI in the assay on DU-145 prostate is 45.2 µM; in the assay with HOP-92 NSCLC it was 32.2 µM; with IGROV1 ovarian it was 15.1 µM; with LOX IMVI melanoma it was 23.9 µM; in the assay with MCF7 breast, 20.3 µM; in the assay with OVCAR-4 ovarian it was 26.4 µM. Further, the concentration for total growth inhibition (TGI) came out at 28.2 µM in the assay with PC-3 prostate, 28.3 µM with SF-268 CNS, 35.5 µM in the assay on SR leukemia and 16.4 µM in the assay with TK-10 renal.
